Results reported in article PMC12040169 (PLOS Biology, 2025).

Test: in vitro
Conditions: human, hela cells, % viability

| Structure (SMILES) | viability at 28.5 h, 10 µM [%] |
| --- | --- |
| CC(C)(CN1CCCCC1)NC(=O)CCOc1cccc(F)c1 [CBK282060] | 87.2 |
| CN(C)CC1CCCN(C(=O)[C@@H]2C[C@@H]3C=C[C@H]2C3)C1 (some centres unmarked) [CBK282063] | 98 |
| CCN1CC(C(=O)N2CCCC(CN(C)C)C2)CC1=O (centres unmarked) [CBK282064] | 106 |
| O=C(C1C2CCCCC21)N1CCC(Oc2ccc(F)cc2)CC1 (centres unmarked) [CBK282065] | 92.1 |
| CCn1c(C)nc2cc(C(=O)NC3CCCOC3)ccc21 (centres unmarked) [CBK282066] | 92.5 |
| Cc1nc(C)n(CCNC(=O)C(C)Cc2cccs2)n1 (centres unmarked) [CBK282067] | 79.7 |
| Cc1ccn(CCNC(=O)CC2CC3CCC2C3)n1 (centres unmarked) [CBK282068] | 110 |
| CC(Cc1ccccn1)NC(=O)Cn1ccnc1 (centres unmarked) [CBK282069] | 104 |
| CC(Cc1ccccn1)NC(=O)C1CC2C=CC1C21CC1 (centres unmarked) [CBK282070] | 90.7 |
| CCc1cc(CNC(=O)C2CC3C=CC2C32CC2)on1 (centres unmarked) [CBK282071] | 102 |
| Cc1nonc1CN(C)C(=O)C1CC2C=CC1C21CC1 (centres unmarked) [CBK282076] | 97.2 |
| Cc1cc(C)n(C(C)CC(=O)N2CCCCC2CCN2CCCC2)n1 (centres unmarked) [CBK282078] | 106 |
| CC1c2ccsc2CCN1C(=O)c1ccnn1C(C)C (centres unmarked) [CBK282079] | 89.2 |
| CC(Cn1cncn1)C(=O)N1CCc2sccc2C1C (centres unmarked) [CBK282080] | 106 |
| Cc1nn(C)cc1C(C)NC(=O)c1ccc(CN(C)C)o1 (centres unmarked) [CBK282083] | 96.1 |
| Cc1nccn1CCN(C)C(=O)C1CC2C=CC1C21CC1 (centres unmarked) [CBK282084] | 91.7 |
| CN(C)CC1CCCCN1C(=O)C1CC2C=CC1C21CC1 (centres unmarked) [CBK282085] | 86.6 |
| CN(C)CC1CCCCN1C(=O)C1C2CCCCC21 (centres unmarked) [CBK282087] | 97.7 |
| COCc1ccc(C(=O)N2CCN3C(=O)CCC32C)o1 (centres unmarked) [CBK282091] | 104 |
| Cc1cc(C(=O)N2CCN3C(=O)CCC32C)c(C2CC2)o1 (centres unmarked) [CBK282092] | 97.6 |
| Cc1nn(Cc2ccccc2)c(C)c1CC(=O)NCCn1ccnc1 [CBK282095] | 107 |
| CCC(=O)N1CCC(c2cc(-c3cccc(F)c3)n(C)n2)CC1 [CBK282096] | 107 |
| CC(=O)N1CCC(c2cc(-c3cccc(F)c3)n(C)n2)CC1 [CBK282097] | 101 |
| CC1(C)OC(=O)CC1C(=O)N1CCCC(COc2ccccc2F)C1 (centres unmarked) [CBK282098] | 100 |

| Structure (SMILES) | viability at 28.5 h, 10 µM [%] |
| --- | --- |
| CC1CCCN(CC(C)(C)NC(=O)c2ccnn2C(F)F)C1 (centres unmarked) [CBK282099] | 98.4 |
| O=C(CCc1ccncc1)N1CCCCC1CN1CCCCCC1 (centres unmarked) [CBK282102] | 99.6 |
| Cc1cnn(CC(=O)N2CCCCC2CN2CCCCCC2)c1 (centres unmarked) [CBK282103] | 98.9 |
| Cc1c(C(=O)NC(C)c2ccncc2)oc2c(F)cccc12 (centres unmarked) [CBK282105] | 103 |
| CCn1nc(C(C)C)cc1C(=O)NCCN1CCC(C)CC1 [CBK282107] | 85.6 |
| c1ccc(CN2C[C@H]3CCc4c[nH]nc4[C@H]3C2)nc1 [CBK282108] | 87 |
| O=C(c1ccncc1)N1C[C@H]2CCc3c(n[nH]c3C(F)(F)F)[C@H]2C1 [CBK282110] | 87.3 |
| Cc1nc(C2CCN(Cc3ccccc3)C2)c2ccccn12 (centres unmarked) [CBK282111] | 88.1 |
| Cn1ccnc1SCCNC(=O)c1cccc(Cn2cccn2)c1 [CBK282112] | 105 |
| CCCC(=O)NCCn1ncc(-c2ccncc2)c1C1CC1 [CBK282116] | 83.6 |
| O=C(C1CCCN(CC(O)c2cccs2)C1)N1CCCCCC1 (centres unmarked) [CBK282117] | 100 |
| CCn1c(CN(C)Cc2cc(C)[nH]n2)nc2ccccc21 [CBK282120] | 110 |
| CN(C)CC1CCCN(C(=O)c2cc3cc(Cl)ccc3n2C)C1 (centres unmarked) [CBK282121] | 111 |
| CN(C)CC1CCCN(C(=O)c2cc3cc(F)ccc3n2C)C1 (centres unmarked) [CBK282122] | 85.6 |
| CCn1nc(C)c(CN(C)Cc2nc3ccccc3[nH]2)c1C [CBK282126] | 93.9 |
| Cc1nc2ccc(C(=O)N3CCN(C4CCCCC4)C(=O)C3)cc2[nH]1 [CBK282131] | 86.5 |
| O=C(C1CC1)N1CCCc2cc(C(O)CN3CCCCC3)ccc21 (centres unmarked) [CBK282135] | 99.5 |
| CC1CCCN(CC(O)c2ccc3c(c2)CCCN3C(=O)C2CC2)C1 (centres unmarked) [CBK282136] | 100 |
| Cc1nn(C(C)CC(=O)N2CCCC(CN(C)C)C2)c(C)c1Cl (centres unmarked) [CBK282137] | 107 |
| Cn1nc(C2CC2)cc1C(=O)NCCN1CCc2ccccc21 [CBK282138] | 91.5 |
| CCC(=O)N1CCCc2cc(C(O)CN3CCC(C)CC3)ccc21 (centres unmarked) [CBK282144] | 105 |
| CCN(CC)C(=O)CCn1c(-c2cccnc2C)cc2cccnc21 [CBK282147] | 91.5 |
| CCN(CC)C(=O)CCn1c(-c2ccc(C)nc2)cc2cccnc21 [CBK282150] | 87.2 |
